Test results published in US5837728A, “9-cis retinoic acid esters and amides and uses thereof” (priority 1995, dated 1998).

How the values were obtained:
[1] = test system: ornithine decarboxylase (ODC); assay: ODC/Retinoid Bioassay: inhibition of TPA induced ornithine decarboxylase activity; assay type: in vivo, CD-1 mice; settings: for ODC activity reduction: topical, 1.7 nM (as printed in Table 2), TPA induced
Description: The ODC/Retinoid Bioassay is based on the method of Verma, A. K. and Boutwell, R. K., Cancer Res. (1977) 37:2196-2201. The ODC assay measures a compounds effect on the prevention of the induction of ODC, namely the effect of the retinoid compound on the inhibition of the tumor promoter 12-O-tetradecanoylphorbol-13-acetate (TPA) induced ODC activity. The assay is carried out using CD-1 mice (aged 7 to 9 weeks). The dorsal hair of the mice is shaved 3-4 days before testing. Four mice are used for each point. The test retinoids, at one of two dose levels (1.7 and 17 nmoles) dissolved in 0.2 ml of acetone is applied topically to the back of each shaved mouse. A single dose of TPA ([…]) is applied to the back of each treated mouse 30 minutes later. Control groups are treated with either acetone alone, TPA, or tretinoin. The mice are sacrificed by cervical dislocation 5 hours after TPA treatment.
The dorsal skin encompassing the shaved and TPA exposed area is excised and placed in a 100 ml beaker containing distilled water maintained at 51° C.-57° C. The skin is soaked for 50-70 seconds at this temperature with intermittent stirring. The skin is placed epidermis side up in a chilled (0°-5° C.) stainless steel plate and the epidermal layer is scraped off with a razor blade. The epidermal layers from the 4 mice are pooled and placed in a homogenization tube with 2 ml of ODA buffer ([…] with […] pyridoxal phosphate, […] ethylenediaminetetraacetic acid (EDTA), 1 mM dithiothreitol, pH 7.5). The pooled epidermal layers are homogenized for 15 seconds at 0° C. using a Polytron homogenizer at a setting of 7.5. The homogenate is centrifuged at 30,000×g and the supernatant fraction is pipetted into a storage tube and frozen for about 72 hours.
The homogenate is assayed for ODC activity as described by Verma and Boutwell to measure the release of ^14 CO2 from labeled DL(1-14C) ornithine. Incubations are carried out in disposable centrifuge tubes with center well holders containing filter paper impregnated with sodium hydroxide to absorb ^14 CO2. The incubation mixture consisted of 90 μl of L-ornithine, 350 μl of ODC buffer, 100 μl of 14C-ornithine (1.32 nm, Sp. Act:4.4 pCi/pM) and 10 μl of test sample. After incubation at 37° C. for 45 minutes, 0.5 ml of 2M chilled citric acid (4° C.) is added and incubation is continue for an additional 30 minutes to insure complete absorption of ^14 CO2. The filter paper is removed from the center well holders and set in 1 ml of water in capped scintillation vials for at least 1 hour before adding RBI 3820 scintillation cocktail. Radioactivity is measured in a Tri Carb Scintillation Counter. Results are expressed as pmol of ^14 CO2 released in 30 minutes per milligram of protein based on the specific activity of DL-14C-ornithine. The results are expressed in Table 2 below as the % reduction in ODC activity as compared to the control, for the compounds of each of the preceding Examples: […]

[2] = test system: pseudocomedone (utriculus) of the rhino mouse; assay: Topical rhino mouse pseudocomedone (utriculus) reduction assay; assay type: in vivo; set-up: Utriculus reduction (Table 1) / Utriculus reduction (Table 3): key to the marks not given beside the values; settings: concentration 0.1 (unit not given)
Description: A topical assay to test for pseudocomedone (utriculus) reduction in the rhino mouse is conducted.
Each test compound and a vehicle control is applied topically to the dorsal trunk of the rhino mouse. The utriculus diameters are measured with a ocular micrometer. […] Kligman, et al., The Effect on Rhino Mouse Skin of Agents which Influence Keratinization and Exfoliation, J. Invest. Derm. […] Van Scott, Experimental Animal Integumental Models for Screening Potential Dermatologic Drugs, In Pharmacology of the Skin, eds. […] Mann, Hair Loss and Cyst Formation in Hairless and Rhino Mutant Mice, Anat. Rec. […] Mezick, et al., Topical and Systemic Effects of Retinoids on Horn-Filled Utriculus Size in the Rhino Mouse. A Model to Quantify Antikeratinizing Effects of Retinoids, J. Invest. Derm. […] Mezick, et al., Anti-Acne Activity of Retinoids in the Rhino Mouse, In Models in Dermatology, eds.
(§1) The dorsal trunk of the rhino mouse is the test site. Each test compound is dissolved in alcohol:propylene glycol (70:30, v:v) or other suitable vehicle and topically applied (0.1 ml) to the dorsal trunk once daily, five consecutive days/week for two weeks. Also, administration may be oral (p.o.) in a suitable vehicle. Following treatment, the animals are sacrificed by cervical dislocation. The treated dorsal trunk skin is removed from the animal and placed into 0.5% acetic acid for up to 18 hours at approximately 4° C. After this, the epidermis with the acne cysts is separated from the underlying dermis. The sheets of epidermis are processed by routine methods to permanent whole mounts for microscopic examination. Also, full-thickness samples may be taken, stained (H&E), and examined by light microscopy.
The utriculus diameters are measured with an ocular micrometer to compare effects of test compounds to vehicle control and/or reference compound on cyst reduction. Light microscopy is used to determine effects on cell differentiation.
Another topical assay is conducted following the procedure described above.
Each test compound and a vehicle control was applied topically to the dorsal trunk of the rhino mouse. The utriculus diameters are measured with a ocular micrometer. […] Kligman, et al., J. Invest. […] Van Scott, Pharmacology of the Skin, eds. […] Mann, Anat. […] Mezick, et al, J. Invest. […] Mezick et al., Models in Dermatology, eds.
as §1, with “(70:30,v:v)” for “(70:30, v:v)”, “weeks.” for “weeks. Also, administration may be oral (p.o.) in a suitable vehicle.”, “"acne cysts"” for “acne cysts”, “are” for “may be”, “(H&E)” for “(H&E),”, “microscope.” for “microscopy.”

sebaceous gland = assay: Oral hamster sebaceous gland reduction assay; assay type: in vivo, male Syrian golden hamsters; set-up: key to the marks not given beside the values; settings: 32 mg/kg
Description: An oral assay for hamster sebaceous gland reduction is conducted.
Hamsters are dosed orally with the test compound and vehicle alone. The reduction in sebaceous gland size is estimated microscopically in relation to the control. The assay is unique and proprietary to Ortho Pharmaceutical Corp. and is based upon the work of Plewig et al. (1977) and Gomex et al. (1980). Plewig, et al., Hamster Ear Model for Sebaceous Glands, J. Invest. Derm. 68: 171-176 (1977). Gomez, et al., Effect of 13-cis-Retinoic Acid on the Hamster Flank Organ, J. Invest. Derm. 74: 392-397 (1980).
For oral (p.o.) studies, male Syrian golden hamsters are […] at 5 ml/kg, once daily, five consecutive days/week for two or three weeks. Modified but similar dosing schedules could be used. Control hamsters are dosed with vehicle alone at 5 ml/kg. Following final treatment (up to 72 hours), the hamsters are sacrificed in a CO2 atmosphere. Samples of each test site are placed into 10% buffered formalin and histologically prepared. Serial sections of each sample are stained (H&E) and examined microscopically.
The reduction in sebaceous gland size is estimated microscopically in relation to the control treated sites. To quantify sebaceous gland size, cross-sectional areas are measured with an image analyzer system.

[3] = test system: Human neonatal foreskin fibroblasts; assay: Growth of human neonatal foreskin fibroblasts (cell number); assay type: cell-based; settings: for Number of fibroblasts: two days
Text: (§2) Human neonatal foreskin keratinocytes and human neonatal foreskin fibroblasts were isolated and grown in monlayer culture. Culture medium for keratinocytes was Keratincyte Growth Medium (KGM) from Clonetics, Inc., San Diego. Calif. The culture medium for fibroblasts was Dulbecco's Modified Eagle's Medium (DMEM) supplemented with non-essential amino acids and 10% fetal bovine serum. The culture medium was obtained from GIBCO, Grand Island, N.Y. and the FBS was from Hyclone Labs, Inc., Logan, Utah.
Cells at passage 2-4 were plated in wells of a 24 well dish at approximately 5×10^4 cells per well in their respective culture medium. Incubation was at 37° C. with 5% CO2. After the cells attached and spread overnight, they were washed two times in serum-free keratincyte basal medium (KBM) and incubated in 1 ml of KBM or in 1 ml of KGM. Compound IV was added in varying concentrations to the wells. All-trans-retinoic acid (or no treatment) was added to control wells. The cells were incubated for an additional two days for fibroblasts and three days for keratinocytes, and were then harvested and counted. The effect of IV and of the controls are shown for both cell types in Tables 9 and 10: […]

[4] = test system: Human neonatal foreskin keratinocytes; assay: Growth of human neonatal foreskin keratinocytes (cell number); assay type: cell-based; settings: for Number of keratinocytes, KGM / Number of keratinocytes, KMB: three days
Text: as §2
Cells at passage 2-4 were plated in wells of a 24 well dish at approximately 5×10^4 cells per well in their respective culture medium. Incubation was at 37° C. with 5% CO2. After the cells attached and spread overnight, they were washed two times in serum-free keratincyte basal medium (KBM) and incubated in 1 ml of KBM or in 1 ml of KGM. Compound IV was added in varying concentrations to the wells. […] The cells were incubated for an additional two days for fibroblasts and three days for keratinocytes, and were then harvested and counted.

CC1=C(/C=C/C(C)=C\C=C\C(C)=C\C(=O)OCC(=O)CO)C(C)(C)CCC1 [Compound 8, 1-(9-cis-retinoyloxy)-3-hydroxy-2-propanone]
ODC activity reduction [1]: +++

CCCCCCCCCCCCCC(=O)O[C@@H]1[C@@H](C)[C@@]2(O)[C@@H](C=C(CO)C[C@]3(O)C(=O)C(C)=C[C@@H]23)[C@@H]2C(C)(C)[C@]12OC(C)=O [TPA, 12-O-tetradecanoylphorbol-13-acetate, reference compound]
ODC activity reduction (TPA control) ([1]; TPA 17.0 nM, control): 0 nM ^14 CO2 /30 min/mg Protein

CC1=C(/C=C/C(C)=C\C=C\C(C)=C\C(=O)OCC(=O)c2ccccc2)C(C)(C)CCC1 [Compound 5, 9-cis-retinoyloxy methyl phenyl ketone]
Utriculus reduction (Table 3) [2]: ++
ODC activity reduction [1]: ++

CC1=C(/C=C/C(C)=C\C=C\C(C)=C\C(=O)OCC(=O)COC(=O)/C=C(C)/C=C/C=C(C)\C=C\C2=C(C)CCCC2(C)C)C(C)(C)CCC1 [Compound 4, 1,3-bis-(9-cis-retinoyloxy)-2-propanone]
ODC activity reduction [1]: +++

CCCCCCCC/C=C\CCCCCCCC(=O)OCC(COC(=O)/C=C(C)/C=C/C=C(C)\C=C\C1=C(C)CCCC1(C)C)OC(=O)CCCCCCC/C=C\CCCCCCCC (stereo not drawn) [Compound 9, 1-(9-cis-retinoyloxy)-2,3-dioleoylpropane]
ODC activity reduction [1]: ++

CCCCCCCCCC(=O)OCC(=O)COC(=O)/C=C(C)/C=C/C=C(C)\C=C\C1=C(C)CCCC1(C)C [Compound 3, 1-(9-cis-retinoyloxy)-3-decanoylyoxy-2-propanone]
ODC activity reduction [1]: +++
Sebaceous gland reduction (sebaceous gland): +++

CC1=C(/C=C/C(C)=C\C=C\C(C)=C\C(=O)OCOC(=O)C(C)(C)C)C(C)(C)CCC1 [Compound 6, 9-cis-retinoyloxymethyl 2,2-dimethylpropanoate]
Utriculus reduction (Table 3) [2]: +++
ODC activity reduction [1]: +++

CC1=C(/C=C/C(C)=C\C=C\C(C)=C\C(=O)OCC(=O)C(C)(C)C)C(C)(C)CCC1 [Compound IV]
Number of fibroblasts ([3]; 0.1 μg/ml): 6.4 ± 0.6 × 10^4 cells
Number of fibroblasts ([3]; 0.25 μg/ml): 5.8 ± 0.1 × 10^4 cells
Number of fibroblasts ([3]; 0.5 μg/ml): 5.5 ± 0.8 × 10^4 cells
Number of fibroblasts ([3]; 1.0 μg/ml): 7.9 ± 0.1 × 10^4 cells
Number of fibroblasts ([3]; 5.0 μg/ml): 8.5 ± 0.6 × 10^4 cells
Number of fibroblasts ([3]; 10.0 μg/ml): 7.5 ± 0.9 × 10^4 cells
Effect on fibroblasts (summary of Tables 9 and 10) ([3]; compared with retinoic acid): less active result with fibroblasts
Number of keratinocytes, KGM ([4]; 0.10 μg/ml): 27.4 ± 0.1 × 10^4 cells
Number of keratinocytes, KMB ([4]; 0.10 μg/ml): 13.1 ± 0.5 × 10^4 cells
Number of keratinocytes, KGM ([4]; 0.25 μg/ml): 25.9 ± 0.4 × 10^4 cells
Number of keratinocytes, KGM ([4]; 0.5 μg/ml): 22.5 ± 0.1 × 10^4 cells
Number of keratinocytes, KMB ([4]; 0.5 μg/ml): 13.8 ± 2.4 × 10^4 cells
Number of keratinocytes, KGM ([4]; 1.0 μg/ml): 21.2 ± 0.8 × 10^4 cells
Number of keratinocytes, KMB ([4]; 1.0 μg/ml): 14.0 ± 0.9 × 10^4 cells
Number of keratinocytes, KGM ([4]; 5.0 μg/ml): 6.4 ± 0.1 × 10^4 cells
Number of keratinocytes, KMB ([4]; 5.0 μg/ml): 11.2 ± 1.2 × 10^4 cells
Number of keratinocytes, KGM ([4]; 10.0 μg/ml): 4.5 ± 0.2 × 10^4 cells
Number of keratinocytes, KMB ([4]; 10.0 μg/ml): 8.4 ± 0.2 × 10^4 cells
Effect on keratinocytes (summary of Tables 9 and 10) ([4]; compared with retinoic acid): potent "retinoid" effect on keratinocytes

CC1=C(/C=C/C(C)=C\C=C\C(C)=C\C(=O)ON2C(=O)CCC2=O)C(C)(C)CCC1 [Compound 10, Succinimidyl 9-cis-retinoate]
Utriculus reduction (Table 3) [2]: ++
ODC activity reduction [1]: +++
